Measurements as given in ChEMBL document CHEMBL1201862, “PubChem BioAssay data set” (2004).
Active and inactive are the calls of the source.

Columns and labels:
[1] = target: T1, Alkaline phosphatase, tissue-nonspecific isozyme (Homo sapiens, UniProt P05186); test: TNAP enzyme inhibition by screening hits, dose response, selectivity assay for mouse IAP inhibitor project, biochemical, human TNAP, uHTS hits (AID 488906); assay type: functional
T1 sequence (P05186 whole entry): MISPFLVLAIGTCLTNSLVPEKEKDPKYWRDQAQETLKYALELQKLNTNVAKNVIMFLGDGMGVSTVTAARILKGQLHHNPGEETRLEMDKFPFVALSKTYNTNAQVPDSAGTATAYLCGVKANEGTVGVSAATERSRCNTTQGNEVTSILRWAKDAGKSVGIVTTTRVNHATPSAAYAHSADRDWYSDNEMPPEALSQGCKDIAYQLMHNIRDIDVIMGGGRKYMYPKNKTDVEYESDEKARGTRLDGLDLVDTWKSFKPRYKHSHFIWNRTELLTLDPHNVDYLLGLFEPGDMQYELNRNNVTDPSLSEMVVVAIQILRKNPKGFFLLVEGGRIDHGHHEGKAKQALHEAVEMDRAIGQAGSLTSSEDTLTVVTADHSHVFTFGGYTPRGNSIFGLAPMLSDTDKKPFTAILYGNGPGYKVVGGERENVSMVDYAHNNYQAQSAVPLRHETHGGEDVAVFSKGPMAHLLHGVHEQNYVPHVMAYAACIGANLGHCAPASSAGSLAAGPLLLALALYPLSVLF

[2] = target: Caspase-8 (Homo sapiens, UniProt Q14790); test: inhibitors of purified CASP8 protease – biochemical, Z-IETD-R110 fluorescence, cherry-picked samples, selectivity assay for caspase-6 inhibitor project, dose response (AID 743294)
[3] = target: 1-phosphatidylinositol 4,5-bisphosphate phosphodiesterase gamma-1 (Homo sapiens, UniProt P19174); test: Counterscreen for inhibitors of phospholipase C isozymes (PLC-B3): Fluorescence-based biochemical high throughput dose response assay to identify inhibitors of phospholipase C isozymes (PLC-gamma1).
[4] = target: T2, Caspase-7 (Homo sapiens, UniProt P55210); test: caspase-7 enzyme inhibition, selectivity check – biochemical, DEVD-R110 fluorescence, cherry-pick, selectivity assay for caspase-6 inhibitor project, dose response (AID 743295); assay type: functional
T2 sequence (P55210 whole entry): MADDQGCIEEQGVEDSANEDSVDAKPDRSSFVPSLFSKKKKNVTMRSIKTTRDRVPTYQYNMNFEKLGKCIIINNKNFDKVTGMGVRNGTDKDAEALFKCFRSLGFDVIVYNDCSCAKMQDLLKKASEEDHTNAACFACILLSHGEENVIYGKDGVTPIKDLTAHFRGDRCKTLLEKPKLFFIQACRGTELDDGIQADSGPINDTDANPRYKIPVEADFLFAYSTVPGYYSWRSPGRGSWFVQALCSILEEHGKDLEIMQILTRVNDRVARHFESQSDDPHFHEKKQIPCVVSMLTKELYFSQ

[5] = target: Nonstructural protein 1 (Influenza A virus, UniProt Q194T2); assay type: functional, Influenza A virus (A/California/07/2009(H1N1))
[6] = target: T3, Fatty acid synthase (Homo sapiens, UniProt P49327); test: inhibition of human FAS-TE enzyme activity – biochemical, endpoint fluorescence intensity, uHTS hits, dose response (AID 624327); assay type: functional;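 also: fluorescence from hydrolysis of an O-methyl fluorescein acyl ester substrate by the enzyme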
[7] = target: T3, Fatty acid synthase; test: inhibition of human FAS-TE enzyme activity – biochemical, kinetic fluorescence intensity, dose response (AID 624326); assay type: functional;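 also: rate of fluorescence rise from hydrolysis of a fluorogenic O-methyl fluorescein ester substrate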
[8] = system: Streptococcus sp. 'group A'; test: Streptococcus pyogenes SK(-)GAS viability under kanamycin – luminescence, BacTiterGlo, confirmation, counter-screen for streptokinase expression inhibitor project, dose response (AID 1900); assay type: functional, organism-based
[9] = HEK-293T viability loss, compound-treated – cell-based, uHTS hits, cytotoxicity control for B/T-cell NF-kB inhibitor project, dose response (AID 489019); assay type: functional;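 also: IC50 reflects cytotoxicity as loss of cell viability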
[10] = target: T4, Replicative DNA helicase DnaB (Mycobacterium tuberculosis, UniProt P9WMR3); test: DnaB intein splicing inhibitors, dose response, biochemical, cell-free fluorescence (AID 449749); assay type: functional
T4 sequence (P9WMR3 whole entry): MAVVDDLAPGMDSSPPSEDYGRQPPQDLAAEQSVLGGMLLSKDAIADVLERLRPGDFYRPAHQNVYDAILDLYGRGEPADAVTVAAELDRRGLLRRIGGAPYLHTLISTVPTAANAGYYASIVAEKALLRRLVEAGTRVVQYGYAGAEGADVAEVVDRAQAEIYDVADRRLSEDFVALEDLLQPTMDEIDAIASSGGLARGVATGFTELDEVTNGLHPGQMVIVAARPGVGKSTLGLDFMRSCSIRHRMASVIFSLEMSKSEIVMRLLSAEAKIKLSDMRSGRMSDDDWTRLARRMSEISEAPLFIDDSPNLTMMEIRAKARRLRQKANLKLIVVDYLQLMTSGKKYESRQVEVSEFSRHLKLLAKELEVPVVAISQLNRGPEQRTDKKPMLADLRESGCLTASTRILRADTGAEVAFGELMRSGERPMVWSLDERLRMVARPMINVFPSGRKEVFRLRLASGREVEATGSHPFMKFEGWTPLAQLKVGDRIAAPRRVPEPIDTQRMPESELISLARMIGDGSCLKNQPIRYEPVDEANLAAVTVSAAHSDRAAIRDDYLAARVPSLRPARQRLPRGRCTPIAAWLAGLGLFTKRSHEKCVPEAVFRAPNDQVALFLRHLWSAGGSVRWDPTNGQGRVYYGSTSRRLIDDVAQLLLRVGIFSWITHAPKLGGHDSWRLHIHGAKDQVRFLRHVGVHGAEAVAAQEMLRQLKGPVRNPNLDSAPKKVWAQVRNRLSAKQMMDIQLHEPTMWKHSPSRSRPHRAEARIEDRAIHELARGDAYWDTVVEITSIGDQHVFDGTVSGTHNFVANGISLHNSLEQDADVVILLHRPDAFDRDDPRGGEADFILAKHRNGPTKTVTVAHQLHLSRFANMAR

[11] = target: T5, Ubiquitin-conjugating enzyme E2 N (Homo sapiens, UniProt P61088); assay type: functional
T5 sequence (P61088 whole entry): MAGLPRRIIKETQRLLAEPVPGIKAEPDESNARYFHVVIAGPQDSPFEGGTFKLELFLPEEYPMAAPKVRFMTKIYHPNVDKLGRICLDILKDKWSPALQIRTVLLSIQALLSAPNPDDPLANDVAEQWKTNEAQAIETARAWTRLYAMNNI

T3 sequence (P49327 whole entry): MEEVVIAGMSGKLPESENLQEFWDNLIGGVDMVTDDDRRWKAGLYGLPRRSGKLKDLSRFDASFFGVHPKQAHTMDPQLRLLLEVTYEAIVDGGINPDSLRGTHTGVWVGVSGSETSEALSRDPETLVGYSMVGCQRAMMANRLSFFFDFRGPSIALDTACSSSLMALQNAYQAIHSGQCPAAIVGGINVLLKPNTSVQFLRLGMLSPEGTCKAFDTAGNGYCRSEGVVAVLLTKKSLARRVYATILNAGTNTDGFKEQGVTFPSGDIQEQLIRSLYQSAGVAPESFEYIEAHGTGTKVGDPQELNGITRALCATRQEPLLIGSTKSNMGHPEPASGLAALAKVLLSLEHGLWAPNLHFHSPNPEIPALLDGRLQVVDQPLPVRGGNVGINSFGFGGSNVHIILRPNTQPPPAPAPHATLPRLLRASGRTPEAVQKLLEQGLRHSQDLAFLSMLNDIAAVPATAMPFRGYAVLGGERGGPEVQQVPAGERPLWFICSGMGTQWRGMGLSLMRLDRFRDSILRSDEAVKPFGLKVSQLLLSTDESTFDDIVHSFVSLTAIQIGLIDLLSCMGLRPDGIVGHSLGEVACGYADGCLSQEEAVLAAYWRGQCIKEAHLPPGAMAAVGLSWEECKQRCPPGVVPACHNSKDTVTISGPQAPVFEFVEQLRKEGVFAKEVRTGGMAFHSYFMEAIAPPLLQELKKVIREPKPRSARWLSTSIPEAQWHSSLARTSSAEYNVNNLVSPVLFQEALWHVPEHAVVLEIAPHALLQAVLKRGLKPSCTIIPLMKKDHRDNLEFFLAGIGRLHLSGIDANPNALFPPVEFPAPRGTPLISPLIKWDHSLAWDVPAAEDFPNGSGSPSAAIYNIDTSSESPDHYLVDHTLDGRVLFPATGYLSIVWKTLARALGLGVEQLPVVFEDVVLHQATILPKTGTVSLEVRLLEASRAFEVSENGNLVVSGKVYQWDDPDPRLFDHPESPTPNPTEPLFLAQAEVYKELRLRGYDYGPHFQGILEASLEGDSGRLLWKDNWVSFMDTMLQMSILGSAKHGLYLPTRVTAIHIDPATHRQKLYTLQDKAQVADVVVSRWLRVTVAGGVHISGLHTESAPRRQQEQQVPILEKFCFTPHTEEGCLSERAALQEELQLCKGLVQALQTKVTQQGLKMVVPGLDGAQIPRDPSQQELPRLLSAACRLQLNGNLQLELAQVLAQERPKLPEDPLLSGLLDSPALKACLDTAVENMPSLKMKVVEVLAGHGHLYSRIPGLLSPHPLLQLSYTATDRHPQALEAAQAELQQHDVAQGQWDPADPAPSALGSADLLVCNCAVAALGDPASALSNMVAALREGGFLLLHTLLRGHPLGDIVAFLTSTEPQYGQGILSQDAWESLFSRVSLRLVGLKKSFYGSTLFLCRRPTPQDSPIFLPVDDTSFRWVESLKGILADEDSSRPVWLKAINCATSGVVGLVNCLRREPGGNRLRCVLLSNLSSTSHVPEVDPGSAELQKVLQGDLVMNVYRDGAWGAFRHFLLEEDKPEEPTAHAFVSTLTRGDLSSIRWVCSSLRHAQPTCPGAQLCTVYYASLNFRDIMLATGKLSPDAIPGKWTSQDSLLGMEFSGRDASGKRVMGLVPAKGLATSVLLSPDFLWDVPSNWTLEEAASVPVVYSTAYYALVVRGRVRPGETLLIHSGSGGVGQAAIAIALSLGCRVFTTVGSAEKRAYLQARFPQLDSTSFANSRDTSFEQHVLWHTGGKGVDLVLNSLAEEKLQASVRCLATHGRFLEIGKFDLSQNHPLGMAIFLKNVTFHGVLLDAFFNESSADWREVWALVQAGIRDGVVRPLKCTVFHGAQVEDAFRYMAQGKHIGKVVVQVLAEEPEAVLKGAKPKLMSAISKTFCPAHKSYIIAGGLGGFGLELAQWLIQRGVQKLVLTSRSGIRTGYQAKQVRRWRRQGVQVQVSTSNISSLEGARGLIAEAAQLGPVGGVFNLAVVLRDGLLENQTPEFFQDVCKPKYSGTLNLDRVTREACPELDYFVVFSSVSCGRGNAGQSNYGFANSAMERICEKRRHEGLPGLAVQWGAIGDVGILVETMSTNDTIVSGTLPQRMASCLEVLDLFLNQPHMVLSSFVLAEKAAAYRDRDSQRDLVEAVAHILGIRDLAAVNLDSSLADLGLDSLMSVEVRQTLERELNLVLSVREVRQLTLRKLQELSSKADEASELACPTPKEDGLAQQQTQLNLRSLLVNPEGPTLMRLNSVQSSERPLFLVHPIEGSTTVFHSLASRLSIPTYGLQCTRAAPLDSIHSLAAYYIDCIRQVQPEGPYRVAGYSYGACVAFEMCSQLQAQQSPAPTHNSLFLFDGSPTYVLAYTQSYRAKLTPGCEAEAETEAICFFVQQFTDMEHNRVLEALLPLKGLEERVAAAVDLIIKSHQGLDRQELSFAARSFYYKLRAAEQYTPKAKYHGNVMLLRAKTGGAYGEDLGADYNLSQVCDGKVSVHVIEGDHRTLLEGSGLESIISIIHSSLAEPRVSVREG
Chain of Nonstructural protein 1 (Q194T2 whole entry): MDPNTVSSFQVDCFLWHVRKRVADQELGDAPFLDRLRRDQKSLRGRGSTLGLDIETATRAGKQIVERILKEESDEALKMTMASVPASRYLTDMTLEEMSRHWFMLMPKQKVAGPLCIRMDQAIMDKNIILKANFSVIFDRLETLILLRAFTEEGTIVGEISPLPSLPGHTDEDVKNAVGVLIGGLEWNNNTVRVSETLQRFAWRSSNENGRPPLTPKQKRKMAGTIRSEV
Chain of Caspase-8 (Q14790 217-374 limits assumed): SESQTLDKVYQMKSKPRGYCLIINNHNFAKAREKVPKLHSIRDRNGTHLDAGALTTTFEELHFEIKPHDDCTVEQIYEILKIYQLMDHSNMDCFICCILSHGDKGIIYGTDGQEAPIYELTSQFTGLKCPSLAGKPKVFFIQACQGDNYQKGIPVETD
Chain of Caspase-8 (Q14790 385-479 limits assumed): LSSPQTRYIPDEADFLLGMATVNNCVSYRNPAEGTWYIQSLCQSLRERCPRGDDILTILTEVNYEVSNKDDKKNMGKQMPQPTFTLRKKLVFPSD
Chain of 1-phosphatidylinositol 4,5-bisphosphate phosphodiesterase gamma-1 (P19174 whole entry): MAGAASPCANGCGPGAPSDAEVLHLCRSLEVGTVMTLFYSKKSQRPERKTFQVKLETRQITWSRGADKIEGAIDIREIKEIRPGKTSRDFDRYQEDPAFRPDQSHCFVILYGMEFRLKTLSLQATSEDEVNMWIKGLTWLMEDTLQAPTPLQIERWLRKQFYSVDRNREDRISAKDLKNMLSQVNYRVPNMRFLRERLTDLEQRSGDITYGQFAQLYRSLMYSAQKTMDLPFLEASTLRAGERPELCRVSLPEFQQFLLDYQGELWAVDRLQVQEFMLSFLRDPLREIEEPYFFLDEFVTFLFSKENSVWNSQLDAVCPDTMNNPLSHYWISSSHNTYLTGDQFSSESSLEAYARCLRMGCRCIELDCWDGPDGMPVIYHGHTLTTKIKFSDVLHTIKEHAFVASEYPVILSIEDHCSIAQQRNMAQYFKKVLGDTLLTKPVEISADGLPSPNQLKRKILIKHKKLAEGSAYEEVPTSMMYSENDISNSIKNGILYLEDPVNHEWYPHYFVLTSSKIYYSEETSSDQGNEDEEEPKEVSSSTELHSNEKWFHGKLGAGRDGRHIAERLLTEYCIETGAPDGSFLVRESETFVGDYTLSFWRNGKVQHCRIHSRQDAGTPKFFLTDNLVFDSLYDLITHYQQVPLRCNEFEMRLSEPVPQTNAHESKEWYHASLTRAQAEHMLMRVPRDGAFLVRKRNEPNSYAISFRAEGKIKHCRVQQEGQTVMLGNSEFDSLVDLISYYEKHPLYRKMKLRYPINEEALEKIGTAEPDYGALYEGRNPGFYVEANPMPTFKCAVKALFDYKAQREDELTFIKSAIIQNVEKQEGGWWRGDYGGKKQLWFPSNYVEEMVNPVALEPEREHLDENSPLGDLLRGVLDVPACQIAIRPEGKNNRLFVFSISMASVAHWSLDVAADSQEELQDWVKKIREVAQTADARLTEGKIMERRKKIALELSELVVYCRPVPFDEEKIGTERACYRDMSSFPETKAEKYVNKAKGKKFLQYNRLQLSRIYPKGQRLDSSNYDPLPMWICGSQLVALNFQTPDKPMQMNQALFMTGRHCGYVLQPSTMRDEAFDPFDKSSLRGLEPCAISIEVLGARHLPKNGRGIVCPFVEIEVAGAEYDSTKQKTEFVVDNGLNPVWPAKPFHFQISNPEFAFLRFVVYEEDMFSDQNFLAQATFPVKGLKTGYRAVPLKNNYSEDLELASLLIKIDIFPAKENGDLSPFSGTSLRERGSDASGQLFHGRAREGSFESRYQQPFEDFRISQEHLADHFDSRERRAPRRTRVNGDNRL

| SMILES | IC50 [1] | AC50 [2] | IC50 [3] | AC50 [4] | IC50 [5] | IC50 [6] | IC50 [7] | EC50 [8] | IC50 [9] | AC50 [10] | IC50 [11] |
| --- | --- | --- | --- | --- | --- | --- | --- | --- | --- | --- | --- |
| O=c1ccc2c(-c3ccccc3S(=O)(=O)O)c3ccc(O)c(O)c3oc-2c1O [PYROGALLOL RED] | 24.1 µM (active) | > 70 µM (inactive) | 14.2 µM (inactive) | > 70 µM (inactive) | 13.5 µM (active) | 16.2 µM (active) | 10.4 µM (active) |  |  |  |  |
| CCCCCCCCCCOC(=O)C[n+]1c(COc2ccccc2OC)n(C)c2ccccc21 |  |  |  |  |  |  |  | 6.69 µM (active) | 54.4 µM (inactive) | 3.92 µM (active) | 15.1 µM (active) |
